The values below come from ChEMBL document CHEMBL3400014, “Cytotoxic acyl amides from the soil fungus Gymnascella dankaliensis” (Bioorg Med Chem, 2015).

Molecules are shown by their SMILES. Calls of active or inactive are those of the source. The calls are words filed in the database; no cut-off is given here.

The term IC50 denotes the concentration that inhibits the measured activity by half. Lower therefore signals inhibition by little substance.

For the assay, the system named is L5178Y. Put plainly: Cytotoxicity against mouse L5178Y cells by MTT assay. The assay is classed as functional, cell-based. A general note: Tetrazolium assays rely on reduction of a dye to a coloured formazan, in cell work by metabolically active cells.
In the case of `CC(/C=C/C(=O)NC(Cc1ccc(O)cc1)C(=O)O)=C\[C@H](C)CCCCCCO` (mixture of isomers), the result was inactive.
In the case of `CCCCCC[C@@H](C)/C=C(C)/C=C/C(=O)N[C@H]1C[C@]2(C=C(Cl)C(=O)[C@H](Cl)[C@H]2O)O[C@H]1OC`, 5800 nM corresponded to half-maximal inhibition (IC50).
In the case of `CC(/C=C/C(=O)NC(CO)Cc1ccc(O)cc1)=C\C(C)CC(=O)O` (mixture of isomers), the result was inactive.
Take `CC(/C=C/C(N)=O)=C\[C@H](C)CC(=O)O`: the result was inactive.
The same measure, in the same setting: under `CCCCCC[C@@H](C)/C=C(C)/C=C/C(=O)N[C@H]1C[C@]2(OC1O)[C@@H]1O[C@@H]1C(O)[C@@H]1O[C@@H]12` (some centres not stated) stands “inactive”.
Consider `CCCCCC[C@@H](C)/C=C(C)/C=C/C(=O)N[C@H]1C[C@]2(O[C@H]1OC)[C@@H]1O[C@@H]1C(=O)[C@@H]1O[C@@H]12`, for which the IC50 came out at 440 nM.
For `CCCCCC[C@@H](C)/C=C(C)/C=C/C(=O)N[C@H]1C[C@]2(OC1O)[C@@H]1O[C@@H]1C(O)(CC(C)=O)[C@@H]1O[C@@H]12` (some centres not stated), the result was inactive.
In turn, `CCCCCC[C@@H](C)/C=C(C)/C=C/C(=O)N[C@H]1C[C@]2(OC1O)[C@@H]1O[C@@H]1C(=O)[C@@H]1O[C@@H]12` (some centres not stated) gave an IC50 of 580 nM.
The same measure, in the same setting: the same measure for `CCCCCC[C@@H](C)/C=C(C)/C=C/C(=O)N[C@H]1CC2(C=C(Cl)C(=O)C(Cl)=C2)OC1O` (some centres not stated): 640 nM.
Consider `CC(/C=C/C(=O)NC(Cc1ccc(O)cc1)C(=O)O)=C\[C@H](C)CCCCCC(=O)O` (mixture of isomers), for which the outcome was inactive.
With `CC(/C=C/C(=O)NC(Cc1ccc(O)cc1)C(=O)O)=C\[C@H](C)CC(=O)O` (mixture of isomers), the outcome was inactive.
As to `CCCCCC[C@@H](C)/C=C(C)/C=C/C(N)=O`, the outcome was inactive.
